Test results: PubChem BioAssay AID1671289

Molecular target: Receptor tyrosine-protein kinase erbB-2 (Homo sapiens) (UniProt P04626)
Experiment: ERBB2 kinase inhibitors, dose response, biochemical, Z'-LYTE FRET, direct format, recombinant human (AID 1671289)
Conditions: Z'-LYTE FRET kinase activity

Chain of Receptor tyrosine-protein kinase erbB-2 (Homo sapiens) (P04626 whole entry, looked up): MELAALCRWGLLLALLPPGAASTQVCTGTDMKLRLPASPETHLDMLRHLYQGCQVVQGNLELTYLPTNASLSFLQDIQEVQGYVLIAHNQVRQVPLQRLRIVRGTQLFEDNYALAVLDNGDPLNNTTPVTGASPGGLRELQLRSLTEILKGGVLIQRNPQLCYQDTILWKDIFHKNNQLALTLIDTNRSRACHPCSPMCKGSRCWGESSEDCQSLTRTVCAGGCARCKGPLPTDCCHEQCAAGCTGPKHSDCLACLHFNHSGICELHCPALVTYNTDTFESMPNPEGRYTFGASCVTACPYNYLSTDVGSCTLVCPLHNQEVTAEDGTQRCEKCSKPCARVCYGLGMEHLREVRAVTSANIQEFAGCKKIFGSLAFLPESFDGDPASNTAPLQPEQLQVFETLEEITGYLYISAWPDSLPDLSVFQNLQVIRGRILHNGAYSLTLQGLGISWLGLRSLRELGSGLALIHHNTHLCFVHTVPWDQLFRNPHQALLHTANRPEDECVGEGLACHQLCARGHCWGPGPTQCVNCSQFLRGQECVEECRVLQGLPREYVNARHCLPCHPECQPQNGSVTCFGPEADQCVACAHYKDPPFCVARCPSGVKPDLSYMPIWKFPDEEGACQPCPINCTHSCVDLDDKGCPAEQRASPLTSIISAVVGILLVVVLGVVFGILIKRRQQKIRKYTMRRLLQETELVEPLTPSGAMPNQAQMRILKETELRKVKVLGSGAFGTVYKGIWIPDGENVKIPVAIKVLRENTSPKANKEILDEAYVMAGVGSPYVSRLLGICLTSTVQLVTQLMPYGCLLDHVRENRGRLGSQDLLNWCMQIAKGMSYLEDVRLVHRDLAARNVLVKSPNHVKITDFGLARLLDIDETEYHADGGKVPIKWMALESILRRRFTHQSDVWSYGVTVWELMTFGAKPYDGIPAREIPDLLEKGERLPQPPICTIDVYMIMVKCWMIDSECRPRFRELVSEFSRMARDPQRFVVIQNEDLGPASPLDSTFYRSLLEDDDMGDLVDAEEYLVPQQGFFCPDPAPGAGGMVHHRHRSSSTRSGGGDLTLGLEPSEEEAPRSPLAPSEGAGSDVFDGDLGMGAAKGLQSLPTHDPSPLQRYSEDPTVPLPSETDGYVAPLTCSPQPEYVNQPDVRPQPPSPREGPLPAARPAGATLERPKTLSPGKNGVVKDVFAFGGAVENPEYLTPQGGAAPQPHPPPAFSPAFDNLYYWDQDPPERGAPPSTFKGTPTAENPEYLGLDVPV

IC50: 46.5 nM
Compound: COc1cc2ncnc(Nc3cccc(Cl)c3)c2cc1OC
